The values that follow come from PMC3017127, “Survey of Tyrosine Kinase Signaling Reveals ROS Kinase Fusions in Human Cholangiocarcinoma” (PLoS ONE, 2011).

For one assay, the system named is T1, NPM-ALK.
T1 construct: endogenous NPM-ALK fusion in Karpas-299 cells; with Nucleophosmin
Kind of assay: Karpas-299 cell viability (CellTiter […] AQueous One, MTS). The format is cell-based. The note with it: 72 h; growth read-out of human lymphoma cells with endogenous fusion; control line.

The subject of the next assay is T2, FIG-ROS(S).
T2 construct: gene ROS1; C-terminal Myc tag; MSCV-Neo in murine BaF3 cells; with Golgi-associated PDZ and coiled-coil motif-containing protein
Briefly: BaF3 cell viability (CellTiter […] AQueous One, MTS), IL-3-independent growth. The format is cell-based, Mus musculus. As to conditions: 72 h; growth read-out of cells depending on the fusion kinase; ROS phosphorylation read by Western blot in a separate 3 h test. On the technique in general: Immunoblotting shows a protein as a band on a membrane.

The subject of a further assay is T3, FIG-ROS(L).
T3 construct: gene ROS1; C-terminal Myc tag; MSCV-Neo in murine BaF3 cells; with Golgi-associated PDZ and coiled-coil motif-containing protein
The assay is described as above. The format is cell-based, Mus musculus. As to conditions: 72 h; growth read-out of cells depending on the fusion kinase; ROS phosphorylation read by Western blot in a separate 3 h test.

Structures are written as SMILES.

In the case of `COc1cc(N2CCC(N3CCN(C)CC3)CC2)ccc1Nc1ncc(Cl)c(Nc2ccccc2S(=O)(=O)C(C)C)n1` [TAE684], the IC50 (commonly the concentration at which inhibition is half-maximal) with NPM-ALK is recorded as […]; in the assay on FIG-ROS(S) it was 10 nM; in the assay with FIG-ROS(L), 1.8 nM.
